Data: ChEMBL document CHEMBL1649380, “Prediction of drug intestinal absorption by new linear and non-linear QSPR” (Eur J Med Chem, 2011)

Assay: Drug absorption in human assessed as human intestinal absorption rate
Assay type: ADME, tissue-based, Intestine

In the case of `CN(C)CCCOc1nn(Cc2ccccc2)c2ccccc12` [BENZYDAMINE], the “log10(%HIA +10)” value is reported as 1.987.
In the case of `N[C@@H]1CON=C1O` [CYCLOSERINE], the “log10(%HIA +10)” value is reported as 1.919.
In the case of `C=CCNc1nc(NCC=C)nc(N2CCN(C(c3ccc(F)cc3)c3ccc(F)cc3)CC2)n1` [ALMITRINE], the “log10(%HIA +10)” value is reported as 2.
With `CO/N=C(\C(=O)N[C@@H]1C(=O)N2C(C(=O)O)=C(COC(N)=O)CS[C@H]12)c1ccco1` [CEFUROXIME] the “log10(%HIA +10)” value was 1.176.
In the case of `NS(=O)(=O)c1cc2c(cc1Cl)NCNS2(=O)=O` [HYDROCHLOROTHIAZIDE], the “log10(%HIA +10)” value is reported as 1.875.
In the case of `O=C(COCCOCCOCC(=O)Nc1c(I)cc(I)c(C(=O)O)c1I)Nc1c(I)cc(I)c(C(=O)O)c1I` [IOTROXIC ACID], the “log10(%HIA +10)” value is reported as 1.176.
For `O=C1NS(=O)(=O)c2ccccc21` [SACCHARIN], the “log10(%HIA +10)” value was 1.991.
With `Cc1c(OCC(F)(F)F)ccnc1C[S+]([O-])c1nc2ccccc2[nH]1` (stereo not drawn) [LANSOPRAZOLE] the “log10(%HIA +10)” value was 1.978.
For `CC(C)(C)NCC(O)c1cc(O)cc(O)c1` (stereo not drawn) [TERBUTALINE], the “log10(%HIA +10)” value was 1.857.
For `O=C(N[C@H](CO)[C@H](O)c1ccc([N+](=O)[O-])cc1)C(Cl)Cl` [CHLORAMPHENICOL], the “log10(%HIA +10)” value was 2.
For `CC(C)NCC(O)c1cc(O)cc(O)c1` (stereo not drawn) [METAPROTERENOL], the “log10(%HIA +10)” value was 1.732.
With `CC(=O)Nc1ccc(O)cc1` [ACETAMINOPHEN] the “log10(%HIA +10)” value was 1.978.
For `O=C(O)P(=O)(O)O` [FOSCARNET], the “log10(%HIA +10)” value was 1.431.
In the case of `O=C(O)Cc1ccccc1Nc1c(Cl)cccc1Cl` [DICLOFENAC], the “log10(%HIA +10)” value is reported as 2.041.
For `C[C@](N)(Cc1ccc(O)c(O)c1)C(=O)O` [METHYLDOPA], the “log10(%HIA +10)” value was 1.708.
For `CC(=O)OCC(CCn1cnc2cnc(N)nc21)COC(C)=O` [FAMCICLOVIR], the “log10(%HIA +10)” value was 1.903.
For `CCOC(=O)[C@H](CCc1ccccc1)N[C@@H](C)C(=O)N1CCC[C@H]1C(=O)O.O=C(O)/C=C\C(=O)O` [ENALAPRIL MALEATE], the “log10(%HIA +10)” value was 1.881.
In the case of IVERMECTIN, the “log10(%HIA +10)” value is reported as 1.845.
For `CCc1cccc2c3c([nH]c12)C(CC)(CC(=O)O)OCC3` (stereo not drawn) [ETODOLAC], the “log10(%HIA +10)” value was 1.903.
For `N=c1nc2n(cc1F)[C@@H]1O[C@H](CO)[C@@H](O)[C@@H]1O2` [FLUROCITABINE], the “log10(%HIA +10)” value was 1.623.
With `NC(N)=Nc1nc(CSCCC(N)=NS(N)(=O)=O)cs1` [FAMOTIDINE] the “log10(%HIA +10)” value was 1.681.
For `COc1ccc2c(c1)c(CC(=O)O)c(C)n2C(=O)c1ccc(Cl)cc1` [INDOMETHACIN], the “log10(%HIA +10)” value was 2.041.
With `C[C@@H]1[C@H](O)[C@@H](C)/C=C/C=C/C=C/C=C/C=C/C=C/C=C/[C@H](O[C@@H]2O[C@H](C)[C@@H](O)[C@H](N)[C@@H]2O)C[C@@H]2O[C@](O)(C[C@@H](O)C[C@@H](O)[C@H](O)CC[C@@H](O)C[C@@H](O)CC(=O)O[C@H]1C)C[C@H](O)[C@H]2C(=O)O` [AMPHOTERICIN B] the “log10(%HIA +10)” value was 1.176.
For `NCCCC[C@H](N[C@@H](CCc1ccccc1)C(=O)O)C(=O)N1CCC[C@H]1C(=O)O` [LISINOPRIL ANHYDROUS], the “log10(%HIA +10)” value was 1.544.
With `COCC1=C(C(=O)OC(C)OC(=O)OC(C)C)N2C(=O)[C@@H](NC(=O)/C(=N\OC)c3csc(N)n3)[C@H]2SC1` (stereo partly drawn) [CEFPODOXIME PROXETIL] the “log10(%HIA +10)” value was 1.778.
In the case of `C[C@H](CS)C(=O)N1CCC[C@H]1C(=O)O` [CAPTOPRIL], the “log10(%HIA +10)” value is reported as 1.892.
For `C[C@@H]1O[C@@H](O[C@H]2C[C@@H](O)[C@]3(CO)[C@H]4[C@H](O)C[C@]5(C)[C@@H](C6=CC(=O)OC6)CC[C@]5(O)[C@@H]4CC[C@]3(O)C2)[C@H](O)[C@H](O)[C@H]1O` [OUABAIN], the “log10(%HIA +10)” value was 1.057.
With `COc1cccc(C(=O)CCN[C@@H](C)[C@H](O)c2ccccc2)c1` [OXYFEDRINE] the “log10(%HIA +10)” value was 1.978.
In the case of `CCOC(=O)C(C)(C)Oc1ccc(Cl)cc1` [CLOFIBRATE], the “log10(%HIA +10)” value is reported as 1.987.
With `NC[C@H]1O[C@H](O[C@H]2[C@H](O)[C@@H](O[C@H]3O[C@H](CO)[C@@H](O)[C@H](N)[C@H]3O)[C@H](N)C[C@@H]2N)[C@H](N)C[C@@H]1O` [TOBRAMYCIN] the “log10(%HIA +10)” value was 1.
In the case of `COc1ccc2c3c1O[C@H]1[C@@H](O)C=C[C@H]4[C@@H](C2)N(C)CC[C@@]341` [CODEINE], the “log10(%HIA +10)” value is reported as 2.021.
For `Cc1cc(=O)n(-c2ccccc2)n1C` [ANTIPYRINE], the “log10(%HIA +10)” value was 2.041.
With `CCOC(=O)[C@H](CCc1ccccc1)N[C@@H](C)C(=O)N1[C@H](C(=O)O)C[C@@H]2CCC[C@@H]21` the “log10(%HIA +10)” value was 1.845.
With `CC(=O)Oc1cc(C(C)C)c(OCCN(C)C)cc1C` [MOXISYLYTE] the “log10(%HIA +10)” value was 1.903.
With `CC[C@H](C)C(=O)O[C@H]1C[C@@H](C)C=C2C=C[C@H](C)[C@H](CC[C@@H]3C[C@@H](O)CC(=O)O3)[C@H]21` [LOVASTATIN] the “log10(%HIA +10)” value was 1.608.
For `Nc1ccn(C[C@@H](CO)OCP(=O)(O)O)c(=O)n1.O.O` [CIDOFOVIR], the “log10(%HIA +10)” value was 1.114.
In the case of `Cc1cccc(C)c1NC(=O)NCCCNC(C)C`, the “log10(%HIA +10)” value is reported as 1.909.
For `NCCCC(N)(C(=O)O)C(F)F` (stereo not drawn) [EFLORNITHINE], the “log10(%HIA +10)” value was 1.813.
In the case of `CC(C)NCC(O)COc1ccc(CCOCC2CC2)cc1` (stereo not drawn) [BETAXOLOL], the “log10(%HIA +10)” value is reported as 2.
For `O=C1CN2Cc3c(ccc(Cl)c3Cl)N=C2N1` [ANAGRELIDE], the “log10(%HIA +10)” value was 1.903.
For `CCCCNC(=O)NS(=O)(=O)c1ccc(C)cc1` [TOLBUTAMIDE], the “log10(%HIA +10)” value was 1.978.
For `CN(C)C(=N)N=C(N)N` [METFORMIN], the “log10(%HIA +10)” value was 1.799.
In the case of `Cn1c(=O)c2c(ncn2C)n(C)c1=O` [CAFFEINE], the “log10(%HIA +10)” value is reported as 2.041.
For `Cc1cc(C(=O)NNCc2ccccc2)no1` [ISOCARBOXAZID], the “log10(%HIA +10)” value was 1.903.
For `CC1(C)S[C@@H]2[C@H](NC(=O)[C@H](NC(=O)N3CCN(S(C)(=O)=O)C3=O)c3ccccc3)C(=O)N2[C@H]1C(=O)O` [MEZLOCILLIN], the “log10(%HIA +10)” value was 1.
With `CN(N=O)C(=O)N[C@@H](C=O)[C@@H](O)[C@H](O)[C@H](O)CO` [STREPTOZOCIN] the “log10(%HIA +10)” value was 1.
With `Nc1ncnc2c1ncn2CCOCP(=O)(O)O` [ADEFOVIR] the “log10(%HIA +10)” value was 1.342.
With `COc1ccccc1N1CCN(CCCNc2cc(=O)n(C)c(=O)n2C)CC1` the “log10(%HIA +10)” value was 1.945.
For `CC(C)(C)NCC(O)c1ccc(O)c(CO)n1` (stereo not drawn) [PIRBUTEROL], the “log10(%HIA +10)” value was 1.845.
In the case of `CNC(=O)c1c(I)c(NC(C)=O)c(I)c(C(=O)O)c1I` [IOTHALAMIC ACID], the “log10(%HIA +10)” value is reported as 1.076.
In the case of `O=C(O)c1ccccc1C(=O)Nc1ccc(S(=O)(=O)Nc2nccs2)cc1` [PHTHALYLSULFATHIAZOLE], the “log10(%HIA +10)” value is reported as 1.176.
With `C[C@]12CCC(=O)C=C1CC[C@@H]1[C@@H]2[C@@H](O)C[C@@]2(C)[C@H]1CC[C@]2(O)C(=O)CO` [HYDROCORTISONE] the “log10(%HIA +10)” value was 2.004.
In the case of `N=C(N)N/N=C/c1c(Cl)cccc1Cl` [GUANABENZ], the “log10(%HIA +10)” value is reported as 1.954.
With `CO[C@H]1C[C@H](O[C@H]2CC[C@]3(C=O)[C@H]4CC[C@]5(C)[C@@H](C6=CC(=O)OC6)CC[C@]5(O)[C@@H]4CC[C@]3(O)C2)O[C@H](C)[C@H]1O` [CYMARIN] the “log10(%HIA +10)” value was 1.756.
With `CCN[C@@H]1C[C@H](N)[C@@H](O[C@H]2OC(CN)=CC[C@H]2N)[C@H](O)[C@H]1O[C@H]1OC[C@](C)(O)[C@H](NC)[C@H]1O` [NETILMICIN] the “log10(%HIA +10)” value was 1.
In the case of `NCCC(O)(P(=O)(O)O)P(=O)(O)O` [PAMIDRONIC ACID], the “log10(%HIA +10)” value is reported as 1.176.
For `CCCc1cc(=O)[nH]c(=S)[nH]1` [PROPYLTHIOURACIL], the “log10(%HIA +10)” value was 1.929.
For `CCCC(=O)Nc1ccc(OCC(O)CNC(C)C)c(C(C)=O)c1` (stereo not drawn) [ACEBUTOLOL], the “log10(%HIA +10)” value was 1.999.
